Measurements reported in ChEMBL document CHEMBL1201862, “PubChem BioAssay data set” (2004).
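Following 48 hours of exposure in 96-well plates, responses at five concentrations were used to interpolate endpoints linearly. GI50 marks 50% less growth.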 The source made the active and inactive calls. Rule as the data show it: active = GI50 up to about 1.1 µM and inactive = higher.

How the values were obtained:
Test in all cases: NCI-60 cell line screen, 48 h
[1] = tested on: HT-29
[2] = tested on: EKVX
[3] = tested on: SF-268
[4] = tested on: HL-60
[5] = tested on: M19-MEL
[6] = tested on: SW-620
[7] = tested on: CAKI-1
[8] = tested on: HCT-15
[9] = tested on: HCT-116
[10] = tested on: KM12
[11] = tested on: SK-MEL-28
[12] = tested on: IGROV-1
[13] = tested on: COLO 205
[14] = tested on: RXF 393
[15] = tested on: NCI-H460
[16] = tested on: A549
[17] = tested on: OVCAR-3
[18] = tested on: SF-539
[19] = tested on: LXFL 529
[20] = tested on: M14

## CCCCCC(/C=C/c1ncccc1OCCCCCC(=O)O)=N\NC1=NCCN1
[1]
  GI50: > 100 µM (inactive)
[2]
  GI50: > 100 µM (inactive)
[3]
  GI50: > 100 µM (inactive)
[4]
  GI50: 57.8 µM (inactive)
[5]
  GI50: > 100 µM (inactive)
[6]
  GI50: 85.1 µM (inactive)
[7]
  GI50: > 100 µM (inactive)
[8]
  GI50: > 100 µM
[9]
  GI50: 43.4 µM (inactive)
[10]
  GI50: 54.3 µM (inactive)
[11]
  GI50: > 100 µM (inactive)
[12]
  GI50: > 100 µM (inactive)
[13]
  GI50: 53.8 µM (inactive)
[14]
  GI50: > 100 µM (inactive)
[15]
  GI50: 51.9 µM (inactive)
[16]
  GI50: > 100 µM (inactive)
[17]
  GI50: 89.9 µM (inactive)
[18]
  GI50: 76 µM (inactive)
[19]
  GI50: 47.2 µM (inactive)
[20]
  GI50: > 100 µM (inactive)

## CC(=O)Nc1ccc(C(=O)NN2C(=O)C(Cl)C2c2cccc([N+](=O)[O-])c2)cc1 (stereo not drawn)
[1]
  GI50: > 100 µM (inactive)
[3]
  GI50: > 100 µM (inactive)
[4]
  GI50: > 100 µM (inactive)
[5]
  GI50: > 100 µM (inactive)
[6]
  GI50: > 100 µM (inactive)
[9]
  GI50: > 100 µM (inactive)
[10]
  GI50: > 100 µM (inactive)
[11]
  GI50: > 100 µM (inactive)
[12]
  GI50: > 100 µM (inactive)
[13]
  GI50: > 100 µM (inactive)
[15]
  GI50: > 100 µM (inactive)
[16]
  GI50: > 100 µM (inactive)
[17]
  GI50: > 100 µM (inactive)
[18]
  GI50: > 100 µM (inactive)
[19]
  GI50: > 100 µM (inactive)

## CCOC(=O)c1c(-c2cccc(Cl)c2)c(C(=O)OC)c(C)c2sc(C=O)nc12
[1]
  GI50: 21 µM (inactive)
[2]
  GI50: 16.6 µM (inactive)
[3]
  GI50: 19 µM (inactive)
[4]
  GI50: 17.7 µM (inactive)
[6]
  GI50: 48.4 µM (inactive)
[7]
  GI50: 17.5 µM (inactive)
[8]
  GI50: 19.8 µM
[9]
  GI50: 7.14 µM (inactive)
[10]
  GI50: 16.7 µM (inactive)
[11]
  GI50: 18 µM (inactive)
[12]
  GI50: 17.5 µM (inactive)
[13]
  GI50: 17.5 µM (inactive)
[14]
  GI50: 23.8 µM (inactive)
[15]
  GI50: 19.5 µM (inactive)
[16]
  GI50: 49.9 µM (inactive)
[17]
  GI50: 15.2 µM (inactive)
[18]
  GI50: 18.1 µM (inactive)
[20]
  GI50: 17 µM (inactive)
